Like-named read-outs stand apart in the source and are kept apart here.
Key:
palmitoylated ER66 = experiment: Native gel electrophoresis / Western blot of palmitoylated ER66 in eukaryotic cell-free expression system; type: biochemical, human; conditions: 2-bromopalmitate 100 µM
palmitoylated ER46 = experiment: Native gel electrophoresis / Western blot of palmitoylated ER46 in eukaryotic cell-free expression system; type: biochemical, human; conditions: 2-bromopalmitate 100 µM
ER36 = target: ER36; set-up: method as in PMID 20197310; conditions: previous studies; cited from earlier work
human ER66 = target: T1, human ER66 (Homo sapiens, UniProt P03372); experiment: Competitive [3H]-17β-estradiol ligand binding assay, ER66
T1 sequence (P03372 1-595): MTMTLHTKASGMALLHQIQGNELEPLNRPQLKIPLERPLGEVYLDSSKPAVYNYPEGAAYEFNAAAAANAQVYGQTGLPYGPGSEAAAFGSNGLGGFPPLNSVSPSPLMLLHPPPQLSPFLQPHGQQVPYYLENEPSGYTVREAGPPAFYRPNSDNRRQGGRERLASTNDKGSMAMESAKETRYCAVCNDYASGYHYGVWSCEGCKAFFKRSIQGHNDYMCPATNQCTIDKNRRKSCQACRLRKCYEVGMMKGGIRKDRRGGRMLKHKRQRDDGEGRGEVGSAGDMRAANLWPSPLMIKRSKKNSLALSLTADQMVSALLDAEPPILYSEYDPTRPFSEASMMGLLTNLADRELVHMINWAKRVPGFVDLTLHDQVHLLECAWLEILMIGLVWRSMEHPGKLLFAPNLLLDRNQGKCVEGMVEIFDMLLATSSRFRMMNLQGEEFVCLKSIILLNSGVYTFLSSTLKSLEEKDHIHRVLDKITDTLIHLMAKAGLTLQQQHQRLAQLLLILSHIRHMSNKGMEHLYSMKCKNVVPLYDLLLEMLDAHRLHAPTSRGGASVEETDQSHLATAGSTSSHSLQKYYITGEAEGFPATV

human ER46 = target: T2, human ER46 (Homo sapiens, UniProt P03372); experiment: Competitive [3H]-17β-estradiol ligand binding assay, ER46
T2 sequence (P03372 1-422 isoform P03372-3): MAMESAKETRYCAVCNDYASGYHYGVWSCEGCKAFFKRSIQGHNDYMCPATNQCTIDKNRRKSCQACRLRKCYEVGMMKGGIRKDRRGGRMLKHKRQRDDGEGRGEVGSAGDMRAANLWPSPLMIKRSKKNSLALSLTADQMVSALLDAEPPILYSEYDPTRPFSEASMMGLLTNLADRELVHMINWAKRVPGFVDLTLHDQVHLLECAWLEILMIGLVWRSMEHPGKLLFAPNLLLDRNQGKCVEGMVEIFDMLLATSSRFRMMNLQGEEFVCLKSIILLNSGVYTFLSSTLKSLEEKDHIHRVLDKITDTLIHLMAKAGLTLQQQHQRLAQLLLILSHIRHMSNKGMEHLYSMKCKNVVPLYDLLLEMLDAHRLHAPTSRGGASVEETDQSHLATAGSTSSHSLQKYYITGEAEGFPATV

ERα over ERβ = conditions: cited from earlier work
[1] = ratio of IC50 values of 17β-estradiol and compound, 17β-estradiol set at 100

Molecule: CCCCCCCCCCCCCCC(Br)C(=O)O (stereo not drawn) [2-bromopalmitate, 2-bromohexadecanoic acid]
- expression of palmitoylated ER66 (palmitoylated ER66): abolished
- expression of palmitoylated ER46 (palmitoylated ER46): abolished

Molecule: C[C@]12CC[C@@H]3c4ccc(O)cc4CC[C@H]3[C@@H]1CC[C@@H]2O [17β-estradiol]
- Kd (ER36): 2.2 nM

Molecule: O=c1c(-c2ccc(O)cc2)coc2cc(O)ccc12 [Daidzein, daidzein]
- RBA ER66 (human ER66; [1]): 0.003
- RBA ER46 (human ER46; [1]): 0.002

Molecule: Oc1ccc(-c2c(-c3ccccc3)nn3c(C(F)(F)F)cc(C(F)(F)F)nc23)cc1 [PHTPP, 4-[2-phenyl-5,7-bis(trifluoromethyl)pyrazolo[1,5-a]pyrimidin-3-yl]phenol]
- IC50 (human ER66): 1330 nM
- RBA ER66 (human ER66; [1]): 0.003
- IC50 (human ER46): 3330 nM
- RBA ER46 (human ER46): 0.001

Molecule: CCCc1c(-c2ccc(O)cc2)nn(-c2ccc(O)cc2)c1-c1ccc(O)cc1 [PPT, propylpyrazole triol]
- RBA ER66 (human ER66; [1]): 42052
- RBA ER46 (human ER46; [1]): 23016

Molecule: methyl-piperidino-pyrazole dihydrochloride [MPP]
- RBA ER66 (human ER66): 0.305
- RBA ER46 (human ER46): 0.498
- higher affinity for ER46 when compared to ICI 182,780 (human ER46): four-fold
- selectivity for ERα over ERβ (ERα over ERβ): 200 fold

From PMC3639985, “Differential Ligand Binding Affinities of Human Estrogen Receptor-α Isoforms” (PLoS ONE, 2013)
